The values below come from ChEMBL document CHEMBL3399978, “Synthesis and optimization of picolinamide derivatives as a novel class of 11β-hydroxysteroid dehydrogenase type 1 (11β-HSD1) inhibitors” (Bioorg Med Chem Lett, 2015).

The nature of data set [1]: Metabolic stability in mouse liver microsomes assessed as compound remaining after 30 mins. The data set is classed as ADME. The note with it: read-out: Stability. In general terms: Liver microsomes are vesicles of endoplasmic reticulum, rich in cytochrome P450 enzymes.
A short description of data set [2]: Clearance in mouse at 5 mg/kg, iv. The format is ADME, organism-based. Also on record: dose 5 mg/kg, route intravenous. The note with it: in vivo.
Data set [3] deals with T1, 11-beta-hydroxysteroid dehydrogenase 1 (Homo sapiens, UniProt P28845). Put plainly: Inhibition of human 11beta-HSD1 expressed in HEK293 cells using NADPH assessed as conversion of cortisone to cortisol by cell-based assay.
Data set [4] deals with T2, 11-beta-hydroxysteroid dehydrogenase type 2 (Homo sapiens, UniProt P80365).
T2 sequence (P80365 whole entry): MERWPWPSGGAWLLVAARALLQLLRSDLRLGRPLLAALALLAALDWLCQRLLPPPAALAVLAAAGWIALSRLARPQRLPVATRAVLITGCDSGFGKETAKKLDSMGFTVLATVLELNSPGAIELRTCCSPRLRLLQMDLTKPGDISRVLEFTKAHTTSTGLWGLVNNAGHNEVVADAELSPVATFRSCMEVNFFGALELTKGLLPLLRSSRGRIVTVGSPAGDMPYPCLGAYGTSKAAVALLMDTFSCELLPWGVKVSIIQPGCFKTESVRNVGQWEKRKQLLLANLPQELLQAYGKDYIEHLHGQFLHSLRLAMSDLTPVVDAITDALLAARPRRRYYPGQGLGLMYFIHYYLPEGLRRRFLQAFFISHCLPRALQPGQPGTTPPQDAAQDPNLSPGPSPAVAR
Put plainly: Inhibition of human 11beta-HSD2 using microsomal fraction and NADPH assessed as conversion of cortisone to cortisol by biochemical enzyme assay.

Data set [5] can be described thus: Oral bioavailability in mouse at 20 mg/kg. The format is ADME, organism-based. The conditions noted are these: in vivo.
Data set [6] concerns Mus musculus. Briefly: Ex vivo inhibition of 11beta-HSD1 in male C57BL/6 mouse epididymal fat assessed as conversion of cortisone to cortisol at 30 mg/kg, po after 6 hrs by enzyme immunoassay. The format is functional. The conditions noted are these: C57BL/6, 6 h.
The target of data set [7] is T1, 11-beta-hydroxysteroid dehydrogenase 1. Put plainly: Inhibition of human 11beta-HSD1 using microsomal fraction and NADPH assessed as conversion of cortisone to cortisol by biochemical enzyme assay.
The test system of data set [8] is Mus musculus. Put plainly: Ex vivo inhibition of 11beta-HSD1 in male C57BL/6 mouse epididymal fat assessed as conversion of cortisone to cortisol at 30 mg/kg, po after 2 hrs by enzyme immunoassay. The format is functional. The note with it: C57BL/6, 2 h.
In data set [9] the test system is Mus musculus. Put plainly: Ex vivo inhibition of 11beta-HSD1 in male C57BL/6 mouse liver assessed as conversion of cortisone to cortisol at 30 mg/kg, po after 2 hrs by enzyme immunoassay. The data set is classed as functional. The conditions noted are these: C57BL/6, Liver.
The test system of data set [10] is Mus musculus. Briefly: Ex vivo inhibition of 11beta-HSD1 in male C57BL/6 mouse liver assessed as conversion of cortisone to cortisol at 30 mg/kg, po after 6 hrs by enzyme immunoassay. The data set is classed as functional. The note with it: C57BL/6, Liver.
The target of data set [11] is 11-beta-hydroxysteroid dehydrogenase 1 (Mus musculus, UniProt P50172). Put plainly: Inhibition of mouse 11beta-HSD1 using microsomal fraction and NADPH assessed as conversion of cortisone to cortisol by biochemical enzyme assay.
Data set [12] relates to Mus musculus. Briefly: Reduction in triglyceride level in ob/ob type 2 diabetic mouse model at 10 mg/kg, po once daily after 10 days relative to vehicle treated control. The arrangement: dose 10 mg/kg. The data set is classed as functional, organism-based.
Data set [13] concerns Mus musculus. Briefly: Toxicity in ob/ob type 2 diabetic mouse model assessed as food intake at 10 mg/kg, po once daily after 10 days relative to vehicle treated control. The format is organism-based. Also on record: dose 10 mg/kg, route oral. The conditions noted are these: in vivo, 240 h.
The test system of data set [14] is Mus musculus. Briefly: Toxicity in ob/ob type 2 diabetic mouse model assessed as body weight at 10 mg/kg, po once daily after 10 days relative to vehicle treated control. The conditions noted are these: in vivo, 240 h. The data set is classed as organism-based. Also on record: dose 10 mg/kg, route oral.
The test system of data set [15] is Mus musculus. Put plainly: Reduction in LDL cholesterol level in ob/ob type 2 diabetic mouse model at 10 mg/kg, po once daily after 10 days relative to vehicle treated control. The arrangement: dose 10 mg/kg. The format is functional, organism-based.
Data set [16] concerns Mus musculus. Put plainly: Reduction in non-fasting blood glucose level in ob/ob type 2 diabetic mouse model at 10 mg/kg, po once daily after 10 days relative to vehicle treated control. The format is functional. The conditions noted are these: 240 h.
The test system of data set [17] is Mus musculus. Briefly: Toxicity in ob/ob type 2 diabetic mouse model assessed as HDL cholesterol at 10 mg/kg, po once daily after 10 days relative to vehicle treated control. The note with it: in vivo, 240 h. Also on record: dose 10 mg/kg, route oral. The data set is classed as organism-based.

Active and inactive are the calls of the source. The calls are words filed in the database; no cut-off is given here. Bounds are passed on as bounds.

T1 sequence (P28845 whole entry): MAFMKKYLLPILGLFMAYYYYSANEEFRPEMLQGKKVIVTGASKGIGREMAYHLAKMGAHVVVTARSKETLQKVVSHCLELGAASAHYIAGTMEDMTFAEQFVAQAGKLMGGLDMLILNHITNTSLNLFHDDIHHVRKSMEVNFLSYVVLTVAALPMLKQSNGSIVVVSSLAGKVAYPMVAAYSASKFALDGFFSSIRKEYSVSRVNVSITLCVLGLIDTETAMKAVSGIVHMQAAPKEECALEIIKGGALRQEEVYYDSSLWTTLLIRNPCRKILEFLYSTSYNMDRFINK
Chain of 11-beta-hydroxysteroid dehydrogenase 1 (Mus musculus, UniProt P50172) (P50172 whole entry): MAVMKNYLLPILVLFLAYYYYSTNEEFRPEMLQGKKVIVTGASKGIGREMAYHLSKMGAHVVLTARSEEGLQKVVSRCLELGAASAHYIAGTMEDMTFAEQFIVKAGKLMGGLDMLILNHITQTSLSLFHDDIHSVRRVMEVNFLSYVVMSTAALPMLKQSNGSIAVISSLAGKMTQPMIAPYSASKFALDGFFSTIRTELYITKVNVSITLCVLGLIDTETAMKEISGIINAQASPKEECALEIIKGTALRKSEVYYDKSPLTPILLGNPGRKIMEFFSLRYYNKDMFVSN

As to `C[C@H]1CN(c2ccc(C#N)cc2)CCN1c1cccc(C(=O)N[C@H]2C3CC4CC2C[C@](O)(C4)C3)n1`, the remaining at 0.5 h in [1] was 82%.
`O=C(N[C@H]1C2CC3CC1C[C@](O)(C3)C2)c1cccc(N2CCN(c3ccc(C(F)(F)F)cc3)CC2)n1`: the remaining at 0.5 h in data set [1] is 79%.
With `N#Cc1ccc(N2CCN(c3cccc(C(=O)N[C@H]4C5CC6CC4C[C@](O)(C6)C5)n3)CC2)nc1`, in [1], the remaining at 0.5 h turned out to be 81%.
With `N#Cc1ccc(C2CCN(c3cccc(C(=O)N[C@H]4C5CC6CC4C[C@](O)(C6)C5)n3)CC2)nc1`, the remaining at 0.5 h in data set [1] turned out to be 63%.
As for `C[C@@H]1CN(c2ccc(C(C)(C)O)cc2)CCN1c1cccc(C(=O)N[C@H]2C3CC4CC2C[C@](O)(C4)C3)n1`, in data set [2], the clearance (in general, the rate of elimination divided by the concentration) is 7.67 mL/min/kg. The remaining at 0.5 h in data set [1] was 84%. The IC50 (usually the concentration that gives 50% inhibition) in data set [3] is 4.9 nM; in data set [4], over 10000 nM; in [7], 4.1 nM; in data set [11], 6.6 nM. In addition, the bioavailability (in general, dose-corrected exposure relative to a reference, in per cent) in data set [5] amounted to 32%. Further, the inhibition in vivo (usually the change of the read-out against control, counted positive when it falls) at 30 mg/kg with Mus musculus [6] is 77%; with Mus musculus [8], 94%; in the data set on Mus musculus [9], 73%; in the data set on Mus musculus [10] it was 58%.
With `N#Cc1ccc(N2CCC(c3cccc(C(=O)N[C@H]4C5CC6CC4C[C@](O)(C6)C5)n3)CC2)nc1`, the remaining at 0.5 h in data set [1] came to 52%.
Take `O=C(N[C@H]1C2CC3CC1C[C@](O)(C3)C2)c1cccc(N2CCN(c3ccc([N+](=O)[O-])cc3)CC2)n1`: the remaining at 0.5 h in [1] worked out at 74%.
On to `Cc1ccc(N2CCN(c3cccc(C(=O)N[C@H]4C5CC6CC4C[C@](O)(C6)C5)n3)CC2)cc1`, for which the remaining at 0.5 h in data set [1] amounted to 74%.
For `N#Cc1ccc(N2CCN(c3cccc(C(=O)N[C@H]4C5CC6CC4C[C@](O)(C6)C5)n3)CC2)cc1F`, the remaining at 0.5 h in data set [1] stood at 79%.
With `COc1ccc(N2CCN(c3cccc(C(=O)N[C@H]4C5CC6CC4C[C@](O)(C6)C5)n3)[C@@H](C)C2)cc1`, the remaining at 0.5 h in data set [1] turned out to be 77%.
On the same count and under the same terms, for `N#Cc1ccc(N2CCN(c3cccc(C(=O)N[C@H]4C5CC6CC4C[C@](O)(C6)C5)n3)CC2)c(Cl)c1` the value was 88%; for `NC(=O)c1ccc(N2CCN(c3cccc(C(=O)N[C@H]4C5CC6CC4C[C@](O)(C6)C5)n3)CC2)cc1`, 65%.
Same read-out and setting: for `NC(=O)c1ccc(N2CCN(c3cccc(C(=O)N[C@H]4C5CC6CC4C[C@](O)(C6)C5)n3)CC2)cc1F` the value was 28%.
As to `Nc1ccc(N2CCN(c3cccc(C(=O)N[C@H]4C5CC6CC4C[C@](O)(C6)C5)n3)CC2)cc1`, the remaining at 0.5 h in data set [1] was 97%.
`C[C@H]1CN(c2ccc(S(C)(=O)=O)cc2)CCN1c1cccc(C(=O)N[C@H]2C3CC4CC2C[C@](O)(C4)C3)n1`: in data set [1], the remaining at 0.5 h was determined as 88%. Besides, the IC50 in data set [3] was determined as 6.8 nM; in data set [7] it was 4.2 nM.
Consider `NC(=O)c1ccc(N2CCN(c3cccc(C(=O)N[C@H]4C5CC6CC4C[C@](O)(C6)C5)n3)CC2)c(Cl)c1`, for which the remaining at 0.5 h in data set [1] stood at 32%.
The same measure, in the same setting: in the case of `C[C@@H]1CN(c2ccc(C#N)cc2)CCN1c1cccc(C(=O)N[C@H]2C3CC4CC2C[C@](O)(C4)C3)n1` it was 84%.
The compound `CS(=O)(=O)c1ccc(N2CCN(c3cccc(C(=O)N[C@H]4C5CC6CC4C[C@](O)(C6)C5)n3)CC2)cc1` gave a clearance in data set [2] of 29.7 mL/min/kg. Moreover, in [1], the remaining at 0.5 h came to 87%. In addition, the half-inhibitory concentration (IC50) is 3.9 nM in data set [3], over 10000 nM in data set [4], 1.6 nM in data set [7] and 2.5 nM in data set [11]. Further, the bioavailability in data set [5] was 17%. For the same compound, the inhibition in vivo at 30 mg/kg in the data set with Mus musculus [6] is 22%; in the data set with Mus musculus [8], 70%; with Mus musculus [9], 53%; with Mus musculus [10], 15%.
`C[C@@H]1CN(c2ccc(C(N)=O)cc2)CCN1c1cccc(C(=O)N[C@H]2C3CC4CC2C[C@](O)(C4)C3)n1`: the remaining at 0.5 h in data set [1] is 57%.
On the same count and under the same terms, in the case of `N#Cc1ccc(C2CCN(c3cccc(C(=O)N[C@H]4C5CC6CC4C[C@](O)(C6)C5)n3)CC2)cc1` it was 46%; in that of `O=C(N[C@H]1C2CC3CC1C[C@](O)(C3)C2)c1cccc(N2CCN(c3ccc(F)cc3)CC2)n1`, 73%; in that of `COc1ccc(N2CCN(c3cccc(C(=O)N[C@H]4C5CC6CC4C[C@](O)(C6)C5)n3)CC2)cc1`, 86%.
`N#Cc1ccc(N2CCN(c3cccc(C(=O)N[C@H]4C5CC6CC4C[C@](O)(C6)C5)n3)CC2)cc1` came in with a bioavailability in data set [5] of 5%. Also, the inhibition in vivo at 30 mg/kg in the data set on Mus musculus [6] and in the data set on Mus musculus [10] was under 10% each time.
On to `O=C(N[C@H]1C2CC3CC1C[C@](O)(C3)C2)c1cccc(N2CCN(c3ccc(Cl)cc3)CC2)n1`, for which the remaining at 0.5 h in [1] turned out to be 69%.
As for `COc1ccc(N2CCN(c3cccc(C(=O)N[C@H]4C5CC6CC4C[C@](O)(C6)C5)n3)[C@H](C)C2)cc1`, the remaining at 0.5 h in data set [1] is 80%.
Still for that read-out and setting: for `N#Cc1ccc(N2CCC(c3cccc(C(=O)N[C@H]4C5CC6CC4C[C@](O)(C6)C5)n3)CC2)cc1` the value was 58%; for `CNC(=O)c1ccc(N2CCN(c3cccc(C(=O)N[C@H]4C5CC6CC4C[C@](O)(C6)C5)n3)[C@H](C)C2)cc1`, 61%.
With `C[C@@H]1CN(c2ccc(S(C)(=O)=O)cc2)CCN1c1cccc(C(=O)N[C@H]2C3CC4CC2C[C@](O)(C4)C3)n1`, the inhibition entry in the data set with Mus musculus [12] and with Mus musculus [15] was “Active” in each case. The compound also had a clearance in data set [2] of 14.2 mL/min/kg. Besides, in data set [1], the remaining at 0.5 h was found to be 97%. The IC50 in data set [3] was 3.1 nM; in [4], over 10000 nM; in data set [7] it was 2.2 nM; in data set [11] it was 1.8 nM. Moreover, the Activity result in the data set on Mus musculus [13], in the data set on Mus musculus [14] and with Mus musculus [17] was “Non-toxic” in each case. Besides, the bioavailability in [5] was found to be 41%. For the same compound, the inhibition in vivo at 30 mg/kg with Mus musculus [6] was found to be 86%; with Mus musculus [8], 95%; in the data set with Mus musculus [9], 85%; in the data set with Mus musculus [10], 77%. Besides, in the data set with Mus musculus [16], at 10 mg/kg the inhibition in vivo was 41%.
